According to patent US8846933B2, “N-link hydroxamic acid derivatives useful as antibacterial agents” (Pfizer Inc., priority 2009, dated 2014):

Key:
[1] = system: Escherichia coli EC-1: VOGEL, mouse virulent; experiment: MIC determination (CLSI), strain EC-1; format: cell-based; conditions: strain EC-1, unit assumed
Procedure, shortened: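 The mouse-virulent VOGEL isolate of E. coli, EC-1, served as test organism. Minimum inhibitory concentration was measured by CLSI dilution methodology (M7-A7; M100-S18 standards).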

[2] = system: Pseudomonas aeruginosa UI-18: Wild-type (PA-7); experiment: MIC determination (CLSI), strain PA-7; format: cell-based; conditions: strain PA-7, unit assumed
Procedure, shortened: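 MIC determined by broth dilution per CLSI M7-A7 guidelines with M100-S18 interpretive standards. Test organism: wild-type Pseudomonas aeruginosa UI-18, designated PA-7.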

[3] = generated in the same manner as in Table 4

Compound | EC-1 (MIC) [1] [µg/mL] | PA-7 (MIC) [2] [µg/mL] | EC-1 (MIC) [1, 3] [µg/mL] | PA-7 (MIC) [2, 3] [µg/mL]
CC(CCn1ccc(-c2ccc(OCCc3cccnc3)cc2)cc1=O)(C(=O)NO)S(C)(=O)=O (centres unmarked) [Example 271, N-hydroxy-2-methyl-2-(methylsulfonyl)-4-{2-oxo-4-[4-(2-pyridin-3-ylethoxy)phenyl]pyridin-1(2H)-yl}butanamide] | 0.25 | 2 | – | –
Cc1cnc2ccc(-c3ccn(CCC(C)(C(=O)NO)S(C)(=O)=O)c(=O)c3)cc2c1 (centres unmarked) [Example 301, N-hydroxy-2-methyl-4-[4-(3-methylquinolin-6-yl)-2-oxopyridin-1(2H)-yl]-2-(methylsulfonyl)butanamide] | 4 | 16 | – | –
CC(CCn1ccc(-c2ccc3[nH]ccc3c2)cc1=O)(C(=O)NO)S(C)(=O)=O (centres unmarked) [Example 79] | – | – | 4 | 4
CC(=O)Nc1cccc(-c2ccn(CCC(C)(C(=O)NO)S(C)(=O)=O)c(=O)c2)c1 (centres unmarked) [Example 133, 4-[4-(3-acetamidophenyl)-2-oxopyridin-1(2H)-yl]-N-hydroxy-2-methyl-2-(methylsulfonyl)butanamide] | – | – | > 64 | > 64
CC(CCn1ccc(-c2ccc(OCCO)c(Cl)c2Cl)cc1=O)(C(=O)NO)S(C)(=O)=O (centres unmarked) [Example 234, 4-{4-[2,3-dichloro-4-(2-hydroxyethoxy)phenyl]-2-oxopyridin-1(2H)-yl}-N-hydroxy-2-methyl-2-(methylsulfonyl)butanamide] | 64 | 32 | – | –
COC1(c2ccc(-c3ccn(CC[C@](C)(C(=O)NO)S(C)(=O)=O)c(=O)c3)cc2)CCC1 [Example 352, (2R)-N-hydroxy-4-{4-[4-(1-methoxycyclobutyl)phenyl]-2-oxopyridin-1(2H)-yl}-2-methyl-2-(methylsulfonyl)butanamide] | 2 | 8 | – | –
C[C@@](CCn1ccc(-c2ccc(SCC#N)cc2)cc1=O)(C(=O)NO)S(C)(=O)=O [Example 355, (2R)-4-[4-{4-[(cyanomethyl)thio]phenyl}-2-oxopyridin-1(2H)-yl]-N-hydroxy-2-methyl-2-(methylsulfonyl)butanamide] | 4 | 2 | – | –
CC(CCn1ccc(-c2cc(F)c(F)c(F)c2)cc1=O)(C(=O)NO)S(C)(=O)=O (centres unmarked) [Example 130, N-hydroxy-2-methyl-2-(methylsulfonyl)-4-[2-oxo-4-(3,4,5-trifluorophenyl)pyridin-1(2H)-yl]butanamide] | – | – | 16 | 8
C[C@@](CCn1ccc(-c2ccc(-c3cnoc3)cc2)cc1=O)(C(=O)NO)S(C)(=O)=O [Example 454, (2R)-N-hydroxy-4-[4-(4-isoxazol-4-ylphenyl)-2-oxopyridin-1(2H)-yl]-2-methyl-2-(methylsulfonyl)butanamide] | 2 | 4 | – | –
CCCCCc1ccc(-c2ccn(CCC(C)(C(=O)NO)S(C)(=O)=O)c(=O)c2)cc1 (centres unmarked) [Example 217, N-hydroxy-2-methyl-2-(methylsulfonyl)-4-[2-oxo-4-(4-pentylphenyl)pyridin-1(2H)-yl]butanamide] | < 0.06 | 8 | – | –
CC(CCn1ccc(-c2ccc(Oc3cccnc3)cc2)cc1=O)(C(=O)NO)S(C)(=O)=O (centres unmarked) [Example 287, N-hydroxy-2-methyl-2-(methylsulfonyl)-4-{2-oxo-4-[4-(pyridin-3-yloxy)phenyl]pyridin-1(2H)-yl}butanamide] | 0.5 | 4 | – | –
Cc1ccc(F)cc1-c1ccn(CCC(C)(C(=O)NO)S(C)(=O)=O)c(=O)c1 (centres unmarked) [Example 171, 4-[4-(5-fluoro-2-methylphenyl)-2-oxopyridin-1(2H)-yl]-N-hydroxy-2-methyl-2-(methylsulfonyl)butanamide] | – | – | 64 | 32
C[C@@](CCn1ccc(-c2cnc(-c3ccccc3)o2)cc1=O)(C(=O)NO)S(C)(=O)=O [Example 474] | 64 | 64 | – | –
